Data as given in patent EP4048709B1, “A DRUG FOR THE TREATMENT OF CERVICAL CANCER” (Yildiz Teknik Universitesi, priority 2020, dated 2022).

Key:
HeLa cells [1] = experiment: mitotic index (Feulgen method, Giemsa staining); type: cell-based, human; conditions: 100 µM
Procedure: As a result of applying the optimum concentration of the product(100 µM) on HeLa cells for 0-72 hours, the preparations prepared according to the experimental groups were primarily hydrolyzed with 1 N hydrochloric acid (HCl) at room temperature for 1 minute and then with 1 N HCl at 60°C for 10 minutes in order to determine the effects on the mitotic index values of the cells. After hydrolysis, the Feulgen method was applied to the preparations for 1 hour. Then, these preparations were washed 3 times for 2 minutes with a washing solution, which is specific to the Feulgen method, and air-dried. After the preparations were dried, they were prepared for counting by means of staining with Giemsa dye for 2 minutes. Late prophase, metaphase, anaphase, and telophase stages were counted in order to determine the mitosis index (MI) values of said preparations. The early prophase stage was evaluated together with this stage, as it was morphologically similar to the cells in the interphase group.
Three preparations were evaluated for each experimental group and mitosis index values were determined by means of counting 3000 cells on average from each preparation. The mitosis index values have been decreased from 6% to 3,7% at the 24th hour; from 6,68% to 2,21% at the 48th hour, and from 7,56% to 1,19% at the 72nd hour.

HeLa cells [2] = experiment: cell index, real-time cell analysis system; type: cell-based, human; conditions: 72 hours
Procedure: In the present invention, the cell index parameter was evaluated by means of using a real-time cell analysis system in order to both support the results obtained and to determine the types of cell death, and an E-Plate with 16 wells was used in order to evaluate this parameter. Primarily, 100 µl of growth medium was added to each well of the E-Plate, and background measurements were taken in the cell analyzer device. Then, cultivation is performed in each well such that the 100 µl of growth medium has 6000 cells for HeLa cells. The E-Plates were incubated for 20 minutes in a sterile working cabinet at room temperature, and then placed in the cell analyzer device and incubation was continued at 37°C under ambient conditions of 5% carbon dioxide (CO2) after the cultivation process. The cell analyzer was issued a command to take the measurement every 15 minutes after the cell cultivation to the E-Plates was performed. After approximately 24 hours of cell cultivation, the growth medium in the E-Plates was changed with a growth medium containing different concentrations of In(III)Pc complex at the 1/3rd slice of the proliferation phase of the cells, and measurements were continued at 15-minute intervals for 72 hours. Subsequently, graphics of concentration and time-dependent cell index values were transferred to the computer screen. The antiproliferative effects of the In(III)Pc complex on HeLa cells are observed when the cell index values obtained from the real-time cell analysis system are examined.

[3] = photodegradation quantum yield under irradiation; type: physicochemical
Procedure: DPBF with a concentration of […] was used in order to prevent chain reactions caused by the presence of singlet oxygen. Solutions of a sensitizer containing DPBF (absorbance at irradiation wavelength = 2.0) were prepared in a dark environment and irradiated in the Q band area by means of using the setup described above. This yield was found as 49%, according to Figure 7. The maximum absorbance of the Q band in the solutions of all complexes was set to 1.0 in the solvent used in order to determine the photodegradation quantum yield (Φd), and the decrease in the intensity of the Q band under irradiation with time is observed by means of using the following Equation-3: Φd = ((C0−Ct).V.NA)/(Iabs .S.t) [formula] wherein, • C0 (mol.dm^-3); concentration of Compound 2 before irradiation, • Ct (mol.dm^-3); concentration of Compound 2 […]; reaction volume (3.0 cm^3), • S; irradiated cell area, • t; irradiation time, • NA; Avogadro's number, • Iabs; the overlapping integration of the radiation source intensity. […] It has been observed that Compound 2 is active in destroying cancer cells, and as such may have a potential for the treatment of cancer with PDT when considering the PDT characteristic measurement results described above.

HeLa cells [4] = experiment: proliferation rate analysis (MTT, mitochondrial dehydrogenase enzyme activity); type: cell-based, human; conditions: for absorbance values / viability of cells: 24 hours; for absorbance values: MTT, 570 nm with reference to 690 nm, control group 590×10^-3; for viability of cells: control group considered 100%
Procedure: Different concentrations of In(III)Pc complex were applied to cultured human cervical cancer originated HeLa cells for 24 hours in order to determine the changes in mitochondrial dehydrogenase enzyme activity of cancer cells by means of the In(III)Pc complex obtained. For proliferation rate analysis, routinely cultured HeLa cells were cultivated in culture plates with 96 wells such that the growth medium is 3×10^4 cell/ml per well. In(III)Pc complex prepared at 50 µM, 100 µM, and 150 µM concentrations were applied to the cells after waiting for the cells to adhere and spread. The growth medium in the wells was withdrawn and 40 µl of 3-(4,5-dimethylthiazol-2-yl)-2,5-diphenyltetrazolium bromide (MTT) (5mg/ml) was added at the end of the experiment periods. 160 µl of dimethyl sulfoxide (DMSO) was added to the wells with MTT and incubated for 1 hour in a shaker incubator after waiting for approximately 4 hours. The absorbance values of the formed experimental groups were carried out by means of the spectrophotometer measurements at 570 nm with reference to the 690 nm wavelength after the formazan crystals formed are dissolved for the 1 hour incubation period. The absorbance values obtained as a result of this application were measured as 590×10^-3 for the control group; 460 ×10^-3 for 50 µM; 280 ×10^-3 for 100 µM, and 170 ×10^-3 for 150 µM.

[5] = solubility in common solvents; type: physicochemical; conditions: chloroform, acetone, THF, ethanol, methanol, DMF or DMSO
Procedure: The compound obtained by means of the aforementioned method is in the form of a dark green crystal, and the yield thereof is 82 mg (16,14%). The closed formula of Compound 2, which has a melting point >300°C is C89H99InN8O6, and its molecular weight is 1491,61 g/mol. It has been determined that C, 71.66; H, 6.69; […]; N, 7.51; O, 6.44 when the theoretical elemental analysis of the compound was performed. FTIR analysis was conducted in order to shed light upon the structure of said Compound 2 and it is illustrated in Figure 3. […] Table 1. The solubility data of the In(III) Pc compound.

[6] = singlet oxygen quantum yield (DPBF quencher, ZnPc standard); type: physicochemical; conditions: irradiated in the Q band area, room conditions, Figure 7
Procedure: Singlet oxygen quantum yields of the inventive Compound 2 were calculated by means of Zinc (II) phthalocyanine (ZnPc) standard and 1,3-diphenylisobenzofuran (DPBF) singlet oxygen quencher at room conditions via using Equation-2 below: ΦΔ = ΦΔ^Std .(RDPBF .Iabs^Std)/(RDPBF^Std .Iabs) [formula] wherein, • Φ^StdΔ; the singlet oxygen yield (ZnPc ΦΔ = 0,53 in THF) • ΦΔ; for example, singlet oxygen yield, • RDPBF; the degradation rate of DPBF in the presence of the sample, • ROPBFstd; the degradation rate of DPBF in the presence of the standard, • Iabs; the light absorption rate of sample and standard, • IabStd; the light absorption rate of the standard.
DPBF with a concentration of […] was used in order to prevent chain reactions caused by the presence of singlet oxygen. Solutions of a sensitizer containing DPBF (absorbance at irradiation wavelength = 2.0) were prepared in a dark environment and irradiated in the Q band area by means of using the setup described above. This yield was found as 49%, according to Figure 7. […]

[7] = standard, in THF; cited from earlier work

Row | Molecule | mitosis index values (HeLa cells [1]; 24th hour, decreased from 6%) | mitosis index values (HeLa cells [1]; 48th hour, decreased from 6,68%) | mitosis index values (HeLa cells [1]; 72nd hour, decreased from 7,56%) | effect on cell index values compared with standard curves (HeLa cells [2]; 50 µM) | effect on cell index values compared with standard curves (HeLa cells [2]; 100 µM (optimum concentration)) | effect on cell index values compared with standard curves (HeLa cells [2]; 100 µM (optimum concentration), listed as In(III)Pc complex) | effect on cell index values compared with standard curves (HeLa cells [2]; 150 µM) | photodegradation quantum yield (Φd) ([3]; Q band absorbance set to 1.0, irradiation with time) | stability under the light ([3]; from the photodegradation quantum yield) | absorbance values (HeLa cells [4]; 50 µM) | viability of cells (HeLa cells [4]; 50 µM) | death of the cells (HeLa cells [4]; 100 µM) | absorbance values (HeLa cells [4]; 100 µM) | viability of cells (HeLa cells [4]; 100 µM) | absorbance values (HeLa cells [4]; 150 µM) | viability of cells (HeLa cells [4]; 150 µM) | IC50 (HeLa cells [4]; HeLa cells, read-out: IC50 concentration) | solubility [5] | singlet oxygen yield [6] | singlet oxygen yield ΦΔ [7]
1 | 1,8(11), 15(18),22(25)-tetra-(3,5-di-tert-butylphenoxy) indium (III) phthalocyanine [Compound 2] | 3,7% | 2,21% | 1,19% | does not show a significant effect | DNA damaging effect | DNA damage | cytoskeletal effect | 2,0017×10^-05 | stable under the light | 460 ×10^-3 | 78% | 52.55% | 280 ×10^-3 | 47.45% | 170 ×10^-3 | 28.81% | 100 µM | capable of getting dissolved in common solvents | 49% | –
2 | [Zn+2].c1ccc2c(c1)-c1nc-2nc2[n-]c(nc3nc([n-]c4nc(n1)-c1ccccc1-4)-c1ccccc1-3)c1ccccc21 [ZnPc, Zinc (II) phthalocyanine] | – | – | – | – | – | – | – | – | – | – | – | – | – | – | – | – | – | – | – | 0,53
